In paper PMC6985722 (Antimicrobial Agents and Chemotherapy, 2020):
pEC50: −log10 of the molar value.

System: RSV-A (panel of 10 clinical strains)
Assay: In vitro susceptibility of RSV by plaque assay, RSV-A
Type: cell-based
Conditions: human respiratory syncytial virus
Experimental: Previous RSV challenge studies achieved antiviral efficacy with peripheral blood trough exposure levels over 3× the protein binding-adjusted in vitro EC90 ([12]). Based on the phase 1 PK data, this level of exposure was predicted to be achieved on or after the first dose in the majority of subjects with a 200-mg dose and to be met or exceeded on or after the first dose in all subjects with a 350-mg dose. The in vitro EC90 was determined using a panel of clinical isolates of RSV (Table S7).
EC50 range (nM) EC90 range (nM)
EC50 and EC 90 were determined by plaque assay.
EC50, 50% effective concentration; EC90, 90% effective concentration; RSV, respiratory

## NCc1ccc2c(c1)nc(CN1C(=O)C3(CC3)c3ccc(F)cc31)n2CCCC(F)(F)F [RV521]
read-out: EC50 range
  pEC50: 9.00 to 9.52
read-out: EC90 range
  EC90: 2.5 to 5.6 nM
